The record followed here is PubChem BioAssay (NCI).

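1) Cells in 96-well plates. 2) Compound, 48 h, 5 concentrations. 3) Linear interpolation between surrounding doses. 4) Unreached endpoint = highest concentration. Abbreviation: GI50, concentration required for 50% inhibition of growth. TGI marks complete inhibition of growth.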

Some test systems named below: MALME-3M melanoma; KM12 colon; SF-268 CNS; MDA-MB-435; HCC-2998 colon; NCI/ADR-RES ovarian; MDA-MB-231 breast; HT29 colon; NCI-H226 lung; RXF 393 renal.
Common to all, as to assay: NCI-60 cell line screen, 48 h

Consider `COc1cc2cn3c4ccc(O)cc4[nH]c(=O)c3c2cc1OC`, for which the GI50 in the test on MALME-3M melanoma is 0.0349 µM; with KM12 colon, 0.0451 µM; in the test with SF-268 CNS it was less than 0.01 µM; in the test on MDA-MB-435 it was less than 0.01 µM; in the test on HCC-2998 colon, 0.0307 µM; in the test with NCI/ADR-RES ovarian, 0.0883 µM. Moreover, the GI50 was 0.0516 µM with MDA-MB-231 breast, 0.025 µM in the test with HT29 colon, 0.0374 µM with NCI-H226 lung and less than 0.0122 µM in the test with RXF 393 renal. Further, the TGI with MALME-3M melanoma worked out at 2.06 µM; with KM12 colon, 1.48 µM; in the test on SF-268 CNS, 1.55 µM; with MDA-MB-435, 0.0192 µM; in the test on HCC-2998 colon it was 1.61 µM; with NCI/ADR-RES ovarian, 2.01 µM. For the same compound, the TGI with MDA-MB-231 breast turned out to be 1.79 µM; in the test on HT29 colon it was 0.469 µM; in the test with NCI-H226 lung, 16.8 µM; with RXF 393 renal it was 1.49 µM.
With `COc1ccc(-n2cc(-c3ccc(Cl)c(Cl)c3)nc2SCc2cccc(C#N)c2)cc1`, the GI50 in the test with MALME-3M melanoma is 16.4 µM; with KM12 colon, more than 100 µM; in the test on SF-268 CNS it was 37 µM; in the test on MDA-MB-435, 12.5 µM; with HCC-2998 colon, 79.1 µM; in the test on NCI/ADR-RES ovarian, 23 µM. Also, the GI50 in the test on MDA-MB-231 breast is 68 µM; in the test with HT29 colon it was 4.7 µM; in the test with NCI-H226 lung, 77 µM; in the test on RXF 393 renal, 13.6 µM. Further, the TGI in the test with MALME-3M melanoma, in the test with KM12 colon, with SF-268 CNS, with MDA-MB-435, in the test on HCC-2998 colon and with NCI/ADR-RES ovarian was more than 100 µM in each case. For the same compound, the TGI is more than 100 µM in the test with MDA-MB-231 breast, more than 100 µM in the test with HT29 colon, more than 100 µM with NCI-H226 lung and 41 µM in the test on RXF 393 renal.
Regarding `N#CC(C(=O)/C(=N/Nc1nc(=S)[nH]n1N)C(C#N)c1ccccc1)c1ccccc1` (stereo not given), the TGI in the test with MALME-3M melanoma, with KM12 colon, in the test on SF-268 CNS, in the test with MDA-MB-435, in the test with HCC-2998 colon and with NCI/ADR-RES ovarian was more than 100 µM throughout. The TGI with MDA-MB-231 breast, with HT29 colon, with NCI-H226 lung and with RXF 393 renal was more than 100 µM in each case.
Consider `O/N=C\c1c(O)ccc2ccccc12`, for which the TGI in the test on MALME-3M melanoma is 75.5 µM; with KM12 colon it was more than 100 µM; in the test with SF-268 CNS it was more than 100 µM; in the test on MDA-MB-435, more than 100 µM; with HCC-2998 colon, more than 100 µM; with NCI/ADR-RES ovarian, more than 100 µM. Besides, the TGI in the test with MDA-MB-231 breast, with HT29 colon, in the test on NCI-H226 lung and in the test on RXF 393 renal was more than 100 µM throughout.
Consider `CCCS(=O)(=O)Nc1ccc(Nc2c3ccccc3nc3ccccc23)c(OC)c1`, for which the TGI with MALME-3M melanoma was 6.68 µM; with KM12 colon it was 14.7 µM; with SF-268 CNS, 8.31 µM; in the test with MDA-MB-435, 26.3 µM; in the test with HCC-2998 colon it was 6.3 µM; in the test on NCI/ADR-RES ovarian, 37.1 µM. In addition, the TGI with MDA-MB-231 breast was determined as 10.4 µM; with HT29 colon it was 7.16 µM; with NCI-H226 lung it was 13 µM; with RXF 393 renal, 14.9 µM.
Turning to `COc1cc(NC(C)CCCN)c2nccc(C)c2c1OC` (stereo not given), the GI50 was 2.84 µM with MALME-3M melanoma; 16.7 µM with KM12 colon; 17.9 µM in the test with SF-268 CNS; 17.1 µM with MDA-MB-435; 4.85 µM with HCC-2998 colon; 20.5 µM in the test on NCI/ADR-RES ovarian. For the same compound, the GI50 in the test with MDA-MB-231 breast was 8.18 µM; in the test on HT29 colon, 4.72 µM; in the test with NCI-H226 lung it was 18.8 µM; in the test on RXF 393 renal it was 17.1 µM. For the same compound, the TGI stood at 9.84 µM in the test with MALME-3M melanoma; 35.1 µM in the test with KM12 colon; 48.3 µM with SF-268 CNS; 32.7 µM in the test with MDA-MB-435; 17.8 µM with HCC-2998 colon; 74.6 µM with NCI/ADR-RES ovarian. Besides, the TGI in the test with MDA-MB-231 breast stood at 25.3 µM; with HT29 colon, 20.9 µM; in the test on NCI-H226 lung it was 43 µM; with RXF 393 renal, 40.3 µM.
Turning to `COc1ccc(-c2cc(-c3cccn3C)c(C#N)c(N)n2)cc1OC`, the GI50 in the test on MALME-3M melanoma was more than 100 µM; with KM12 colon, more than 100 µM; in the test on SF-268 CNS, 82.4 µM; with MDA-MB-435, more than 100 µM; in the test with HCC-2998 colon, more than 100 µM; in the test on NCI/ADR-RES ovarian it was more than 100 µM. Besides, the GI50 in the test with MDA-MB-231 breast is 38.3 µM; with HT29 colon, more than 100 µM; in the test on NCI-H226 lung it was more than 100 µM; in the test with RXF 393 renal it was more than 100 µM. The TGI with MALME-3M melanoma, in the test on KM12 colon, in the test on SF-268 CNS, in the test on MDA-MB-435, in the test on HCC-2998 colon and with NCI/ADR-RES ovarian was more than 100 µM throughout. Besides, the TGI with MDA-MB-231 breast, in the test on HT29 colon, with NCI-H226 lung and in the test on RXF 393 renal was more than 100 µM in each case.
`O=c1[nH]c2cc(Cl)ccc2n1C1CCN(CCCC(c2ccc(F)cc2)c2ccc(F)cc2)CC1`: the GI50 with MALME-3M melanoma was 1.88 µM; in the test on KM12 colon, 1.68 µM; with SF-268 CNS, 1.56 µM; with MDA-MB-435, 1.32 µM; in the test on HCC-2998 colon, 1.87 µM; with NCI/ADR-RES ovarian, 1.74 µM. For the same compound, the GI50 in the test with MDA-MB-231 breast is 1.68 µM; in the test on HT29 colon it was 0.766 µM; with NCI-H226 lung, 1.87 µM; with RXF 393 renal, 0.48 µM. Moreover, the TGI with MALME-3M melanoma was determined as 4.21 µM; with KM12 colon it was 3.27 µM; in the test on SF-268 CNS it was 2.98 µM; in the test on MDA-MB-435, 2.63 µM; in the test with HCC-2998 colon, 3.49 µM; with NCI/ADR-RES ovarian, 3.61 µM. Further, the TGI in the test on MDA-MB-231 breast was 3.12 µM; in the test on HT29 colon, 2.16 µM; in the test on NCI-H226 lung, 3.53 µM; in the test on RXF 393 renal, 2.02 µM.
With `Cc1[nH]n(-c2cccc(Cl)c2)c(=O)c1/C=C1\C=Nc2ccc(Br)cc21`, the GI50 in the test on MALME-3M melanoma was 3.15 µM; with KM12 colon it was 6.65 µM; with SF-268 CNS it was 5.49 µM; in the test on MDA-MB-435, 6.78 µM; in the test on HCC-2998 colon, 14.3 µM; in the test with NCI/ADR-RES ovarian, 3.4 µM. Moreover, the GI50 in the test on MDA-MB-231 breast was 3.4 µM; with HT29 colon, 4.5 µM; in the test with NCI-H226 lung, 5.81 µM; in the test with RXF 393 renal it was 1.86 µM. The TGI in the test with MALME-3M melanoma is 13.1 µM; with KM12 colon it was more than 100 µM; in the test with SF-268 CNS, 26.4 µM; in the test on MDA-MB-435, more than 100 µM; with HCC-2998 colon it was more than 100 µM; with NCI/ADR-RES ovarian, 16 µM. In addition, the TGI is 15.3 µM in the test on MDA-MB-231 breast, more than 100 µM in the test with HT29 colon, 28.5 µM with NCI-H226 lung and 4.01 µM in the test with RXF 393 renal.
